Reference: article PMC3927474, “Whole body synthesis rates of DHA from α-linolenic acid are greater than brain DHA accretion and uptake rates in adult rats” (Journal of Lipid Research, 2014)

Columns and labels:
[1] = Brain DHA uptake study: ^14C-DHA infusion; format: in vivo, rat; conditions: for Brain DHA uptake rate: 5 min ^14C-DHA infusion, 15 wk diet
Procedure: At 15 weeks postweaning, a surgery was performed to implant a catheter into the jugular vein (described above). […] After 5 min of ^14C-DHA infusion rats were euthanized by high-energy head-focused microwave fixation (13.5 kW for 1.6 s). The brains were then removed, dissected sagittally and stored at −80°C until analysis.
A known portion of the plasma TLE was then added to a scintillation vial with 5 ml of scintillation cocktail (GE Healthcare Life Sciences, Baie d'Urfe, QC, Canada). Radioactivity was measured using liquid scintillation counting to determine the plasma AUC for radioactivity. For plasma samples drawn at time 0 s of the infusion, the unesterified lipids were isolated by TLC and quantified using GC-FID (described above).
Radioactivity was quantified by a Packard TRI-CARB2900TR liquid scintillation analyzer (Packard, Meriden, CT) with a detector efficiency of 48.8%. Radioactivity was expressed in disintegrations per minute; then converted to nCi.
Brain hemispheres were homogenized and lipids extracted as described above. A known portion of the TLE was then added to a scintillation tube with 5 ml of scintillation cocktail. Radioactivity was quantified using liquid scintillation counting.
To determine the brain DHA uptake rate, the incorporation coefficient for DHA from the unesterified plasma pool into the brain total lipid pool is ([26]):(Eq. 5) k^*=cbr*(T)/∫0Tcpl*dt where cbr*(T) is the total brain radioactivity at the end of the infusion and ∫0Tcpl*dt is the plasma radioactivity AUC.
Multiplying the incorporation coefficient by the concentration of plasma unesterified DHA (cpl) allows for the determination of the brain DHA uptake rate:(Eq. 6) Jin=k^*cpl

[2] = Whole body fatty acids by GC-FID, balance study; format: in vivo, rat; conditions: 15 wk diet
Procedure: Carcasses were thawed overnight in a refrigerator at 3°C, cut into pieces, and passed through a #12 hand grinder. After the whole body had passed through the grinder once, the homogenate was mixed together by hand and passed at least one more time through the grinder until the mixture was sufficiently homogeneous. Due to the small size of the pups all of the 21-day-old pup bodies were passed through the grinder together.
A portion of the whole body homogenate was weighed and further homogenized (done in duplicate for each 18-week-old rat and the baseline homogenate) using a Polytron benchtop homogenizer (Brinkman Instruments, Toronto, ON, Canada) in a mixture of chloroform:methanol:0.88%KCl (2:1:0.8 by volume) ([28]). The mixture was centrifuged at 500 g for 10 min, and the chloroform layer was extracted. New chloroform was added to the remaining aqueous phase, the mixture was once again centrifuged, and the chloroform layer was extracted and added to the previously extracted chloroform layer. This total lipid extract (TLE) was evaporated under N2, reconstituted in a known volume of chloroform, and stored under N2 at −80°C until further analysis.
A known amount of heptadecanoic acid (17:0; Nu-Check Prep, Elysian, MN) was added to the TLE. Samples were transmethylated using 14% boron trifluoride in methanol at 100°C for 1 h. Fatty acid methyl esters (FAMEs) were extracted with hexane and quantified using GC-FID. FAMEs were analyzed using a Varian-430 gas chromatograph (Varian, Lake Forest, CA) equipped with a Varian FactorFour capillary column (VF-23ms; 30 m × 0.25 mm interior diameter × 0.25 μm film thickness) and a FID. Samples were injected in splitless mode. The injector and detector ports were set at 250°C. […] The carrier gas was helium, set to a constant flow rate of 0.7 ml/min. Peaks were identified by retention times of authentic FAME standards (Nu-Chek Prep). The concentration of each fatty acid was calculated by comparison with the internal standard (17:0) ([29]). The concentrations were expressed on a per gram basis then multiplied by total weight of the tissue to determine the total amount of each fatty acid in the tissue.

[3] = rats; cited from earlier work

For `CC/C=C\C/C=C\C/C=C\CCCCCCCC(=O)O` [ALA, α-linolenic acid], the “Brain DHA uptake rate” value [1] was 467.6 ± 93.7 nmol/day, the “Brain DHA uptake rate” value ([1]; listed as ALA diet) was 468 nmol/day and the “Whole body fatty acids: 12:0” value [2] was 23532 µmol. The “Whole body fatty acids: 14:0” value [2] was 17606 µmol, the “Whole body fatty acids: 14:1n-7” value [2] was 1331 µmol and the “Whole body fatty acids: 16:0” value [2] was 44604 µmol. For the same compound, the “Whole body fatty acids: 16:1n-7” value [2] was 16111 µmol, the “Whole body fatty acids: 18:0” value [2] was 6101 µmol and the “Whole body fatty acids: 18:1n-7” value [2] was 7553 µmol. For the same compound, the “Whole body fatty acids: 18:1n-9” value [2] was 38781 µmol, the “Whole body fatty acids: 18:2n-6” value [2] was 29104 µmol and the “Whole body fatty acids: 18:3n-3” value [2] was 1557 µmol. The “Whole body fatty acids: 18:3n-6” value [2] was 67 µmol, the “Whole body fatty acids: 20:1n-9” value [2] was 189 µmol and the “Whole body fatty acids: 20:2” value [2] was 194 µmol. For the same compound, the “Whole body fatty acids: 20:3n-3” value [2] was 137 µmol, the “Whole body fatty acids: 22:4n-6” value [2] was 155 µmol and the “Whole body fatty acids: 22:5n-3” value [2] was 101 µmol. The “Whole body fatty acids: 22:5n-6” value [2] was 124 µmol, the “Whole body fatty acids: ARA (20:4n-6)” value [2] was 1954 µmol and the “Whole body fatty acids: DHA (22:6n-3)” value [2] was 481 µmol. For the same compound, the “Whole body fatty acids: EPA (20:5n-3)” value [2] was 76 µmol and the “DHA synthesis rate from ALA (steady-state infusion)” value [3] was 9.8 µmol/day.

In the case of `CC/C=C\C/C=C\C/C=C\C/C=C\C/C=C\C/C=C\CCC(=O)O` [DHA, Docosahexaenoic acid], the “Brain DHA uptake rate” value [1] is reported as 858.6 ± 74.8 nmol/day and the “Uptake rate of DHA into the brain, DHA-fed relative to ALA-fed rats” value ([1]; rat, in vivo) is reported as ~2 fold.
